According to patent publication US5045548A, “Quinolyl methoxy compounds and their use as antiasthmatic agents” (Fujisawa Pharmaceutical Company, Ltd., priority 1987, dated 1991):

Legend:
[1] = system: SRS-A (Slow Reacting Substance of Anaphylaxis) synthesis in rat polymorpholeukocyte (PMN); experiment: Inhibitory Activity of SRS-A synthesis in rat polymorpholeukocyte (PMN) using the calcium ionophore A23187 (i-LTC4 by radioimmunoassay); assay type: cell-based, rat (male Sprague-Dawley); settings: Rattus norvegicus, 0.25 h, 10 μM A23187, 15 min, 37° C.
Method: Test I: Inhibitory Activity of SRS-A (Slow Reacting Substance of Anaphylaxis) synthesis in rat polymorpholeukocyte (PMN) of using the calcium ionophore Male Sprague-Dawley rats weighing 250-300 g were anesthetized with ether and each was injected intraperitoneally with 20 ml of 0.1% clycogen (from Oyster). After 20 hours the rats were sacrificed and PMN were recovered in rinse of the peritoneal cavity with 10 ml Dulbeccos PBS (components in g/L: CaCl2 0.1, KH2 PO4 0.2, MgCl2.6H2 O 0.1, NaCl 8.0, Na2 HPO4.7H2 O 2.16; pH7.4). These rinses were filtered through nylon wool filter and centrifuged for 5 min at 1000 xg. The pellet was suspended in Dulbeccos PBS and centrifuged for 5 min at 1000 xg. The pellet was resuspended in Dulbeccos PBS and adjusted the cell concentration to 10^7 cells/ml with Dulbeccos PBS. Samples were dissolved in ethanol and dispersed in Dulbeccos PBS to give a concentration of 10^-10 -10^-5 M Antibiotic A23187; calcium ionophor ([…] Diagnostics) (hereinafter referred to A23187) in DMSO(10mM) was diluted with Dulbeccos PBS to give the concentration of 1 mM. Aliquots of the cell suspension (1×10^7 cells/ml, 0.98 ml) were equilibrated for 30 min at 37° C. Solution of sample(10 μl) was added and incubated for 15 min at 37° C. before the addition of 10 μl of A23187 solution. Thus the final incubation volume of 1 ml contained approximately 1×10^7 cells, 10^-10 -10^-5 M samples and 10 μM A23187. Incubation with A23187 were continued for 15 min at 37° C. The reactions were terminated by setting the assay tubes in ice bath to chill as rapidly as possible to 4° C. The test tubes were centrifuged at 1500 xg for 5 min at 4° C. and decanted the supernatants into the tubes and kept cold prior to assaying. The concentration of i-LTC4 in the cell-free supernatants from the incubations were determined by specific radioimmunoassay. The mean values of i-LTC4 (these incubations were carried out in duplicate) of each sample were calculated and the effect of samples on the synthesis of the leukotrienes was presented as a percentage of the value in the absence of samples.

[2] = system: Intimal Thickening of Rabbit Carotid Artery; experiment: Antiatherosclerotic activity: cuff-induced intimal thickening of rabbit carotid artery; assay type: in vivo, rabbit (male Japanese white); settings: i.m.; for Intimal thickening index: once a day, 3 weeks, mean ± SE (n = 8)
Excerpt: Induction of Intimal Thickening of Rabbit Carotid Artery
Forty male Japanese white rabbits weighing about 2 kg were used for the test of the compound of Example 40. They were divided into 5 groups of 8 animals: one served as control, and the other 4 as drug dose groups. The rabbits were anesthetized with care not to injure the surrounding tissues. A polyetherylene cuff (1.5 cm long, 2.15 mm inner diameter, 3.25 mm outer diameter) was placed around the artery. The rabbits were maintained for 3 weeks on standard laboratory diet and water ad libitum. The compound of Example 40 and the vehicle (0.5%, w/v methyl cellulose in saline) were given intramuscularly once a day starting from the day of cuff-placement. At the end of the 3rd week, the rabbits were heparinized (500, i.v.), and the artery was removed, washed free of blood with saline, fixed by immersion in 10% formalin and divided into 8 cross-segments about 2 mm long. The segments were embedded in paraffin and cut into transverse sections. These sections were stained with orecin. About 70 transverse sections were prepared form each artery and used for the quantitation of the initimal thickening.
Quantitation of Intimal Thickening (Intimal Thickening Index)
The arterial sections were observed by light microscopy and the intimal thickening was scored as follows. 0=no thickening; 1=slight hyperplasia in the subendothelial space with intima media ratio of about 1/10; 2=several layers of cells in the subendothelial space with intima media ratio of about 1/5, or parts of the subendothelial space with more hyperplasia; 3=sever hyperplasia throughout the subendothelial space with intima media ratio of more than 1/3.

[3] = system: CDE-induced pancreatitis in mice; experiment: Effect on experimental pancreatitis in mice (CDE diet-induced, lethal); assay type: in vivo, mouse (female ICR); settings: for % survival: orally two times a day for 4 days, N = 20, control 15
Excerpt: Test III: Effect on experimental pancreatitis in mice
The effect of 5-lipoxygenase inhibitor, the compound of Example 40 was studied in a lethal form of pancreatitis induced by feeding mice an ehionine-supplemented choline-deficient diet (CDE diet).
Female ICR mice, aged 3 wk were used in this study. All mice were fed a regular laboratory diet before the experiments. The CDE diet was then substituted for 2 days, and after this period replaced by the regular diet for an additional 6 days.
The compound of Example 40 was administered orally two times a day for 4 days after the beginning of the CDE diet.

[4] = 0.1 mg/kg, P < 0.01 compared with vehicle control
[5] = 10 mg/kg, P < 0.01 compared with vehicle control

Compound: CCCCC1(CCCC)CCc2c(OCc3ccc4ccccc4n3)cccc2C1O (single isomer, unassigned; (+)) [Example 40, (+)-2,2-dibutyl-5-(2-quinolylmethoxy)-1,2,3,4-tetrahydro-1-naphthol]
- IC50 [1]: 6.5 nM
- Intimal thickening index, percentage versus the mean value of vehicle control ([2]; 0.01 mg/kg): 90.1%
- Intimal thickening index ([2]; 0.01 mg/kg): 1.27 ± 0.17
- Intimal thickening index [2, 4]: 0.71 ± 0.16
- Intimal thickening index, percentage versus the mean value of vehicle control [2, 4]: 50.4%
- Intimal thickening index, percentage versus the mean value of vehicle control ([2]; 1.0 mg/kg): 65.9%
- Intimal thickening index ([2]; 1.0 mg/kg): 0.93 ± 0.31
- inhibition of cuff-induced intimal thickening (in words) ([2]; 0.01-10 mg/kg): dose-dependently inhibited cuff-induced intimal thickening
- inhibitory activity on intimal thickening (in words) ([2]; 10 mg/kg): exerted significant inhibitory activity
- Intimal thickening index [2, 5]: 0.60±0.21
- Intimal thickening index, percentage versus the mean value of vehicle control [2, 5]: 42.5%
- % survival ([3]; 10 mg/kg): 10%
- % survival ([3]; 32 mg/kg): 35%
- % survival ([3]; 100 mg/kg): 85%
- prevention of CDE-induced pancreatitis (in words) ([3]; orally, 10-100 mg/kg): prevented the CDE-induced pancreatitis in a dose-dependent manner
